In assay [1] the target is T1, recombinant soluble tissue factor and recombinant human factor VIIa (TF-VIIA) (Homo sapiens, UniProt P08709).
T1 construct: conversion of coagulation factor VII to VIIa by Xa; purchased American Diagnostica, Greenwich Conn; (factor VIIa); host or cells: soluble TF made in house in E. coli
Description: TF-VIIa Assay. Type of assay: biochemical.
Description: In this assay 100 nM recombinant soluble tissue factor and 2 nM recombinant human factor VIIa are added to a 96-well assay plate containing 0.4 mM of the substrate, N-Methylsulfonyl-D-phe-gly-arg-p-nitroaniline and either inhibitor or buffer (5 mM CaCl2,50 mM Tris-HCl, pH 8.0, 100 mM NaCl, 0.1% BSA). The reaction, in a final volume of 100 ul is measured immediately at 405 nm to determine background absorbance. The plate is incubated at room temperature for 60 min, at which time the rate of hydrolysis of the substrate is measured by monitoring the reaction at 405 nm for the release of p-nitroaniline. Percent inhibition of TF-VIIa activity is calculated from OD405nm value from the experimental and control sample.

Another assay deals with T2, human factor Xa (Homo sapiens, UniProt P00742).
T2 construct: leads from XII to XIIa to XIa to IXa and to the conversion of X to Xa; purchased Enzyme Research Laboratories, South Bend Ind
Description: Xa Assay. The class given is biochemical. On the procedure:
0.3 nM human factor Xa and 0.15 mM N-α-Benzyloxycarbonyl-D-arginyl-L-glycyl-L-arginine-p-nitroaniline-dihydrochloride (S-2765) are added to a 96-well assay plate containing either inhibitor or buffer (50 mM Tris-HCl, pH 8.0, 100 mM NaCl, 0.1% BSA). The reaction, in a final volume of 100 ul is measured immediately at 405 nm to determine background absorbance. The plate is incubated at room temperature for 60 min, at which time the rate of hydrolysis of the substrate is measured by monitoring the reaction at 405 nm for the release of p-nitroaniline. Percent inhibition of Xa activity is calculated from OD405 nm value from the experimental and control sample.
Recombinant soluble TF, consisting of amino acids 1-219 of the mature protein sequence was expressed in E. coli and purified using a Mono Q Sepharose FPLC. Recombinant human VIIa was purchased from American Diagnostica, Greenwich Conn. and chromogenic substrate N-Methylsulfonyl-D-phe-gly-arg-p-nitroaniline was prepared by American Peptide Company, Inc., Sunnyvale, Calif. Factor Xa was obtained from Enzyme Research Laboratories, South Bend Ind., thrombin from Calbiochem, La Jolla, Calif., and trypsin and L-BAPNA from Sigma, St. Louis Mo. The chromogenic substrates S-2765 and S-2238 were purchased from Chromogenix, Sweden.

T1 sequence (P08709 213-466 limits assumed): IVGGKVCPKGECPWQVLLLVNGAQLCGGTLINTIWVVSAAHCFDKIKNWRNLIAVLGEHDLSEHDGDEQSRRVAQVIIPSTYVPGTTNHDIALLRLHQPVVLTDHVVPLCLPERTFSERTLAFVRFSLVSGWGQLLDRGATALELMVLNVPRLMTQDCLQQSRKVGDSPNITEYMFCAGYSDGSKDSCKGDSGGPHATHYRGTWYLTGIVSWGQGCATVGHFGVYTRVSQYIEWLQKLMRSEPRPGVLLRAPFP
T1 sequence (P08709 61-212 limits assumed): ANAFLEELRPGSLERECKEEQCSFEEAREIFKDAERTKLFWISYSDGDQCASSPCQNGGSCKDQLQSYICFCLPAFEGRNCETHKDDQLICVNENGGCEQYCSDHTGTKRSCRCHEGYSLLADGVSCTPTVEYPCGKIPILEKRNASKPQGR
T1 sequence (P13726 33-251 partner limits assumed): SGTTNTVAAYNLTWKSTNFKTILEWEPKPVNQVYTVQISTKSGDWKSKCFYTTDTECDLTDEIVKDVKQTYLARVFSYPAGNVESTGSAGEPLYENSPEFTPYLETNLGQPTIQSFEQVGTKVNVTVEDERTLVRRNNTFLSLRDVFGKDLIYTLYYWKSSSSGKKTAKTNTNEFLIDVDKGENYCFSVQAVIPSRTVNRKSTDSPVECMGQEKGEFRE
T2 sequence (P00742 235-488 limits assumed): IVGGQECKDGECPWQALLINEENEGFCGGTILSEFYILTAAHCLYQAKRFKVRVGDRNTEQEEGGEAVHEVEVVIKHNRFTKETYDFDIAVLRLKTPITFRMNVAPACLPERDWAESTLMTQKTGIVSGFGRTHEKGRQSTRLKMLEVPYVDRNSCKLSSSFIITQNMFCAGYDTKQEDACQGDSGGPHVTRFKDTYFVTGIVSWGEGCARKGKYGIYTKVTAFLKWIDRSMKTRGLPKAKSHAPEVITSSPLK
T2 sequence (P00742 41-179 limits assumed): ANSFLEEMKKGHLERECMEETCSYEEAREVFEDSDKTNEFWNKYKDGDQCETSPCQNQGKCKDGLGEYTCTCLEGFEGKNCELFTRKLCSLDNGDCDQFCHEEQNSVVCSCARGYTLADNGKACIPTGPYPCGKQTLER

Consider `O=C(NCC1CCNCC1)c1cc(NS(=O)(=O)Cc2ccccc2)ccc1Sc1ccccc1` [Example 1], for which the IC50 (usually the concentration that inhibits the measured activity by half) in assay [1] was greater than 30 µM.
In the case of `CN(C)c1ccc(CNC(=O)c2cc(NS(=O)(=O)Cc3ccccc3)ccc2Sc2ccccc2)cc1` [Example 2], the IC50 (in assay [1]; at human factor Xa) was greater than 30 µM each time.
For the molecule `O=C(NCc1ccncc1)c1cc(NS(=O)(=O)Cc2ccccc2)ccc1Sc1ccccc1` [Example 3], the IC50 (in assay [1]; against human factor Xa) was greater than 30 µM in each case.
With `N=C(N)c1ccc(CNC(=O)c2cc(NS(=O)(=O)Cc3ccccc3)ccc2Sc2ccccc2)cc1` [Example 4], the half-inhibitory concentration (IC50) (in assay [1]; at human factor Xa) was greater than 30 µM in each case.
As to `O=C(Cc1c(F)ccc(NS(=O)(=O)Cc2ccccc2)c1F)NCC1CCNCC1` [Example 9], the IC50 (in assay [1]; against human factor Xa) was greater than 30 µM throughout.
In the case of `CN(C)c1ccc(CNC(=O)Cc2c(F)ccc(NS(=O)(=O)Cc3ccccc3)c2F)cc1` [Example 10], in assay [1], the concentration for half-maximal inhibition (IC50) was greater than 30 µM.
Same read-out and setting: to `O=C(Cc1c(F)ccc(NS(=O)(=O)Cc2ccccc2)c1F)NCc1ccncc1` [Example 11] belongs greater than 30 µM.
For the molecule `O=C(Cc1c(F)ccc(NS(=O)(=O)Cc2ccccc2)c1F)NCCCn1ccnc1` [Example 12], the half-inhibitory concentration (IC50) (in assay [1]; on human factor Xa) was greater than 30 µM in each case.
Turning to `N=C(N)c1cccc(CNC(=O)Cc2c(F)ccc(NS(=O)(=O)Cc3ccccc3)c2F)c1` [Example 13], the IC50 in assay [1] was greater than 30 µM.
In the case of `N=C(N)c1ccc(CNC(=O)Cc2c(F)ccc(NS(=O)(=O)Cc3ccccc3)c2F)cc1` [Example 14], the IC50 (in assay [1]; against human factor Xa) was greater than 30 µM each time.
Regarding `N=C(N)NCCCCCNC(=O)Cc1c(F)ccc(NS(=O)(=O)Cc2ccccc2)c1F` [Example 15], the IC50 (in assay [1]; at human factor Xa) was greater than 30 µM in each case.
For the molecule `N=C(N)c1ccc(CNC(=O)Cc2c(-c3ccccc3)ccc(NCCc3ccccc3)c2F)cc1` [Example 17], the 50% inhibitory concentration (IC50) against human factor Xa is greater than 30 µM.
For `N=C(N)c1ccc(CNC(=O)Cc2c(-c3ccccc3)ccc(NCCc3ccccc3)c2O)cc1` [Example 19], at human factor Xa, the 50% inhibitory concentration (IC50) is greater than 30 µM.
For the molecule `COc1c(NC(C)C)ccc(-c2ccccc2)c1CC(=O)NCc1ccc(C(=N)N)cc1` [Example 22], the IC50 against human factor Xa was greater than 30 µM.

(Values after patent publication US6852761B2, “Polycyclic aryl and heteroaryl substituted benzenes useful for selective inhibition of the coagulation cascade” (Pharmacia Corporation, priority 2000, dated 2005).)
